Assay results: US4965280A, “Antifungal carbinols” (E. I. Du Pont de Nemours and Company, priority 1989, dated 1990)

What was measured:
Test in all cases: Test E
ANN. BLUEGRASS = type: in vivo, PO annua
CTCHWD BEDSTRAW = type: in vivo, Galium aparine
ITALN. RYEGRASS = type: in vivo, Lolium multiflorum
BLACKGRASS = type: in vivo, Alopercurus mysuroides
From the text: Seeds of the following crops and weeds are sown into 15 cm pots containing Sassafras sandy loam soil: wheat (Triticum aestivum cv. Park), barley (Hordeum vulgare cv. Bonanza), sugarbeet (Beta vulgaris cv. USH-11), rapeseed (Brassica napus cv. Jet Neuf), black nightshade (Solanum nigrum), chickweed (Stellaria media), lambsquarter (Chenopodium album), Galium aparine, knotweed (Polygonum aviculare), Kochia scoparia, Matricaria indora, redroot pigweed (Amaranthus retroflexus), smartweed (Polygonum persicaria), speedwell (Veronica persica), wild buckwheat (Polygonum convolvulus), wild mustard (Brassica spp.), wild radish (Raphanus raphanistrum), annual bluegrass (PO annua), annual ryegrass (Lolium multiflorum), blackgrass (Alopercurus mysuroides), green foxtail (Setaria viridis), and wild oats (Avena fatua). Compounds are formulated in a nonphytotoxic solvent and applied to the plants as a foliar spray or applied to the soil surface. Plants are treated at two stages: preemergence, or postemergence when the sugarbeets are at the 2-3 true leaf stage. Plants are grown in a temperature-controlled greenhouse for the duration of the test.
Weed control and crop injury are evaluated visually at 3-4 weeks after compound application, using a scale of 0 to 100%, where 0=no injury and 100=complete death of the plant. All plants are rated with respect to untreated plants (checks) grown in the greenhouse under identical conditions to the treated plants.

CMN CHICKWEED = type: in vivo, Stellaria media
WILD RADISH = type: in vivo, Raphanus raphanistrum
KOCHIA = type: in vivo, Kochia scoparia
REDROOT PIGWEED = type: in vivo, Amaranthus retroflexus
GREEN FOXTAIL = type: in vivo, Setaria viridis
WILD OATS = type: in vivo, Avena fatua

C=C(c1ccccc1)C(O)(Cn1cncn1)c1ccc(F)cc1F (centres unmarked) [Example 52, 2-(2,4-Difluorophenyl)-3-phenyl-1-(1H-1,2,4-triazol-1-yl)-3-buten-2-ol]
plant response (ANN. BLUEGRASS; POSTEMERGENCE 0064 GM/HA): 30% | plant response (ANN. BLUEGRASS; POSTEMERGENCE 0125 GM/HA): 40% | plant response (ANN. BLUEGRASS; POSTEMERGENCE 0250 GM/HA): 60% | plant response (ANN. BLUEGRASS; POSTEMERGENCE 0500 GM/HA): 70% | plant response (ANN. BLUEGRASS; PREEMERGENCE 0250 GM/HA): 100% | plant response (CTCHWD BEDSTRAW; POSTEMERGENCE 0064 GM/HA): 20% | plant response (CTCHWD BEDSTRAW; POSTEMERGENCE 0125 GM/HA): 80% | plant response (CTCHWD BEDSTRAW; POSTEMERGENCE 0250 GM/HA): 70% | plant response (CTCHWD BEDSTRAW; POSTEMERGENCE 0500 GM/HA): 100% | plant response (CTCHWD BEDSTRAW; PREEMERGENCE 0250 GM/HA): 100% | plant response (ITALN. RYEGRASS; POSTEMERGENCE 0064 GM/HA): 0% | plant response (ITALN. RYEGRASS; POSTEMERGENCE 0125 GM/HA): 20% | plant response (ITALN. RYEGRASS; POSTEMERGENCE 0250 GM/HA): 50% | plant response (ITALN. RYEGRASS; POSTEMERGENCE 0500 GM/HA): 80% | plant response (ITALN. RYEGRASS; PREEMERGENCE 0250 GM/HA): 70% | plant response (BLACKGRASS; POSTEMERGENCE 0064 GM/HA): 0% | plant response (BLACKGRASS; POSTEMERGENCE 0125 GM/HA): 0% | plant response (BLACKGRASS; POSTEMERGENCE 0250 GM/HA): 20% | plant response (BLACKGRASS; POSTEMERGENCE 0500 GM/HA): 60% | plant response (BLACKGRASS; PREEMERGENCE 0250 GM/HA): 20% | plant response (CMN CHICKWEED; POSTEMERGENCE 0064 GM/HA): 0% | plant response (CMN CHICKWEED; POSTEMERGENCE 0125 GM/HA): 0% | plant response (CMN CHICKWEED; POSTEMERGENCE 0250 GM/HA): 0% | plant response (CMN CHICKWEED; POSTEMERGENCE 0500 GM/HA): 0% | plant response (CMN CHICKWEED; PREEMERGENCE 0250 GM/HA): 0% | plant response (WILD RADISH; POSTEMERGENCE 0064 GM/HA): 10% | plant response (WILD RADISH; POSTEMERGENCE 0125 GM/HA): 10% | plant response (WILD RADISH; POSTEMERGENCE 0250 GM/HA): 50% | plant response (WILD RADISH; POSTEMERGENCE 0500 GM/HA): 80% | plant response (WILD RADISH; PREEMERGENCE 0250 GM/HA): 50% | plant response (KOCHIA; POSTEMERGENCE 0064 GM/HA): 0% | plant response (KOCHIA; POSTEMERGENCE 0125 GM/HA): 0% | plant response (KOCHIA; POSTEMERGENCE 0250 GM/HA): 0% | plant response (KOCHIA; POSTEMERGENCE 0500 GM/HA): 70% | plant response (KOCHIA; PREEMERGENCE 0250 GM/HA): 0% | plant response (REDROOT PIGWEED; POSTEMERGENCE 0064 GM/HA): 0% | plant response (REDROOT PIGWEED; POSTEMERGENCE 0125 GM/HA): 50% | plant response (REDROOT PIGWEED; POSTEMERGENCE 0250 GM/HA): 90% | plant response (REDROOT PIGWEED; POSTEMERGENCE 0500 GM/HA): 90% | plant response (REDROOT PIGWEED; PREEMERGENCE 0250 GM/HA): 100% | plant response (GREEN FOXTAIL; POSTEMERGENCE 0064 GM/HA): 0% | plant response (GREEN FOXTAIL; POSTEMERGENCE 0125 GM/HA): 0% | plant response (GREEN FOXTAIL; POSTEMERGENCE 0250 GM/HA): 40% | plant response (GREEN FOXTAIL; POSTEMERGENCE 0500 GM/HA): 75% | plant response (GREEN FOXTAIL; PREEMERGENCE 0250 GM/HA): 100% | plant response (WILD OATS; POSTEMERGENCE 0064 GM/HA): 0% | plant response (WILD OATS; POSTEMERGENCE 0125 GM/HA): 0% | plant response (WILD OATS; POSTEMERGENCE 0250 GM/HA): 20% | plant response (WILD OATS; POSTEMERGENCE 0500 GM/HA): 30% | plant response (WILD OATS; PREEMERGENCE 0250 GM/HA): 70%

C=C(c1ccc(Cl)cc1Cl)C(O)(Cn1cncn1)c1ccccc1F (centres unmarked) [Example 107]
plant response (ANN. BLUEGRASS; PREEMERGENCE 0250 GM/HA): 20% | plant response (CTCHWD BEDSTRAW; PREEMERGENCE 0250 GM/HA): 0% | plant response (ITALN. RYEGRASS; PREEMERGENCE 0250 GM/HA): 0% | plant response (BLACKGRASS; PREEMERGENCE 0250 GM/HA): 20% | plant response (CMN CHICKWEED; PREEMERGENCE 0250 GM/HA): 0% | plant response (WILD RADISH; PREEMERGENCE 0250 GM/HA): 60% | plant response (KOCHIA; PREEMERGENCE 0250 GM/HA): 0% | plant response (REDROOT PIGWEED; PREEMERGENCE 0250 GM/HA): 100% | plant response (GREEN FOXTAIL; PREEMERGENCE 0250 GM/HA): 100% | plant response (WILD OATS; PREEMERGENCE 0250 GM/HA): 0%

C=C(c1ccc(F)cc1)C(O)(Cn1cncn1)c1ccccc1F (centres unmarked) [Example 644]
plant response (ANN. BLUEGRASS; POSTEMERGENCE 0064 GM/HA): 20% | plant response (ANN. BLUEGRASS; POSTEMERGENCE 0125 GM/HA): 50% | plant response (ANN. BLUEGRASS; POSTEMERGENCE 0250 GM/HA): 50% | plant response (ANN. BLUEGRASS; POSTEMERGENCE 0500 GM/HA): 80% | plant response (ANN. BLUEGRASS; PREEMERGENCE 0500 GM/HA): 80% | plant response (CTCHWD BEDSTRAW; POSTEMERGENCE 0064 GM/HA): 0% | plant response (CTCHWD BEDSTRAW; POSTEMERGENCE 0125 GM/HA): 30% | plant response (CTCHWD BEDSTRAW; POSTEMERGENCE 0250 GM/HA): 30% | plant response (CTCHWD BEDSTRAW; POSTEMERGENCE 0500 GM/HA): 30% | plant response (CTCHWD BEDSTRAW; PREEMERGENCE 0500 GM/HA): 0% | plant response (ITALN. RYEGRASS; POSTEMERGENCE 0064 GM/HA): 0% | plant response (ITALN. RYEGRASS; POSTEMERGENCE 0125 GM/HA): 20% | plant response (ITALN. RYEGRASS; POSTEMERGENCE 0250 GM/HA): 50% | plant response (ITALN. RYEGRASS; POSTEMERGENCE 0500 GM/HA): 40% | plant response (ITALN. RYEGRASS; PREEMERGENCE 0500 GM/HA): 0% | plant response (BLACKGRASS; POSTEMERGENCE 0064 GM/HA): 0% | plant response (BLACKGRASS; POSTEMERGENCE 0125 GM/HA): 0% | plant response (BLACKGRASS; POSTEMERGENCE 0250 GM/HA): 30% | plant response (BLACKGRASS; POSTEMERGENCE 0500 GM/HA): 50% | plant response (BLACKGRASS; PREEMERGENCE 0500 GM/HA): 20% | plant response (CMN CHICKWEED; POSTEMERGENCE 0064 GM/HA): 0% | plant response (CMN CHICKWEED; POSTEMERGENCE 0125 GM/HA): 0% | plant response (CMN CHICKWEED; POSTEMERGENCE 0250 GM/HA): 0% | plant response (CMN CHICKWEED; POSTEMERGENCE 0500 GM/HA): 0% | plant response (CMN CHICKWEED; PREEMERGENCE 0500 GM/HA): 20% | plant response (WILD RADISH; POSTEMERGENCE 0064 GM/HA): 20% | plant response (WILD RADISH; POSTEMERGENCE 0125 GM/HA): 30% | plant response (WILD RADISH; POSTEMERGENCE 0250 GM/HA): 50% | plant response (WILD RADISH; POSTEMERGENCE 0500 GM/HA): 80% | plant response (WILD RADISH; PREEMERGENCE 0500 GM/HA): 0% | plant response (KOCHIA; POSTEMERGENCE 0064 GM/HA): 0% | plant response (KOCHIA; POSTEMERGENCE 0125 GM/HA): 0% | plant response (KOCHIA; POSTEMERGENCE 0250 GM/HA): 50% | plant response (KOCHIA; POSTEMERGENCE 0500 GM/HA): 70% | plant response (KOCHIA; PREEMERGENCE 0500 GM/HA): 100% | plant response (REDROOT PIGWEED; POSTEMERGENCE 0064 GM/HA): 50% | plant response (REDROOT PIGWEED; POSTEMERGENCE 0125 GM/HA): 50% | plant response (REDROOT PIGWEED; POSTEMERGENCE 0250 GM/HA): 50% | plant response (REDROOT PIGWEED; POSTEMERGENCE 0500 GM/HA): 60% | plant response (REDROOT PIGWEED; PREEMERGENCE 0500 GM/HA): 80% | plant response (GREEN FOXTAIL; POSTEMERGENCE 0064 GM/HA): 30% | plant response (GREEN FOXTAIL; POSTEMERGENCE 0125 GM/HA): 30% | plant response (GREEN FOXTAIL; POSTEMERGENCE 0250 GM/HA): 50% | plant response (GREEN FOXTAIL; POSTEMERGENCE 0500 GM/HA): 50% | plant response (GREEN FOXTAIL; PREEMERGENCE 0500 GM/HA): 100% | plant response (WILD OATS; POSTEMERGENCE 0064 GM/HA): 0% | plant response (WILD OATS; POSTEMERGENCE 0125 GM/HA): 0% | plant response (WILD OATS; POSTEMERGENCE 0250 GM/HA): 20% | plant response (WILD OATS; POSTEMERGENCE 0500 GM/HA): 20% | plant response (WILD OATS; PREEMERGENCE 0500 GM/HA): 20%
